According to ChEMBL document CHEMBL5365473, “Novel Sulfonylurea-Based NLRP3 Inflammasome Inhibitor for Efficient Treatment of Nonalcoholic Steatohepatitis, Endotoxic Shock, and Colitis” (J Med Chem, 2023):
The source made the active and inactive calls. The rule behind the calls is not given here.

Tests used:
Mus musculus [1] = test: Antiinflammatory activity against MCD diet-induced NASH C57BL/6 mouse model assessed as reduction in liver fibrosis at 40 mg/kg, po administered via gavage for 5 weeks by Masson's trichrome staining based analysis; format: functional, organism-based
Mus musculus [2] = test: Antiinflammatory activity against MCD diet-induced NASH C57BL/6 mouse model assessed as reduction in balloon dilatation in liver at 40 mg/kg, po administered via gavage for 5 weeks by Masson's trichrome staining based analysis; format: functional, organism-based
Mus musculus [3] = test: Antiinflammatory activity against DSS-induced ulcerative colitis C57BL/6 mouse assessed as reduction in inflammatory cells infiltration in lamina propria in colon at 10 mg/kg, ip administered for 9 days and measured on day 10 by H and E staining based analysis; format: functional, organism-based; conditions: time 10.0 day
L02 = test: Cytotoxicity against human HL7702 cells assessed as reduction in cell viability at 500 uM measured after 24 hrs by CCK8 assay; format: toxicity, cell-based; conditions: l02, 24 h
Hepatocyte = test: Cytotoxicity against mouse primary hepatic cells assessed as reduction in cell viability at 200 uM measured after 24 hrs by CCK8 assay; format: toxicity, cell-based; conditions: hepatocytes
[4] = Toxicity against female ICR mouse assessed as effect on body weight at 200 to 500 mg/kg administered via gavage for 12 days; format: organism-based; conditions: in vivo, po, 288 h, dose 200-500 mg/kg, time 12 day
[5] = Toxicity against female ICR mouse assessed as effect on brain weight at 200 to 500 mg/kg administered via gavage for 12 days; format: organism-based; conditions: in vivo, po, 288 h, dose 200-500 mg/kg, time 12 day
[6] = Toxicity against male ICR mouse assessed as effect on spleen weight at 200 to 500 mg/kg administered via gavage for 12 days; format: organism-based; conditions: in vivo, po, 288 h, dose 200-500 mg/kg, time 12 day
[7] = Toxicity against male ICR mouse assessed as effect on kidney weight at 200 to 500 mg/kg administered via gavage for 12 days; format: organism-based; conditions: in vivo, po, 288 h, dose 200-500 mg/kg, time 12 day
[8] = Toxicity against female ICR mouse assessed as effect on plasma AST level at 200 to 500 mg/kg administered via gavage for 12 days; format: organism-based; conditions: in vivo, po, 288 h, dose 200-500 mg/kg, time 12 day
[9] = Toxicity against male ICR mouse assessed as effect on plasma ALT level at 200 to 500 mg/kg administered via gavage for 12 days; format: organism-based; conditions: in vivo, po, 288 h, dose 200-500 mg/kg, time 12 day
[10] = molecular target: NACHT, LRR and PYD domains-containing protein 3 (Mus musculus) (UniProt Q8R4B8); test: Inhibition of NLRP3 inflammasome in mouse J774.A1 cells assessed as inhibition of caspase-1 activation primed with LPS for 4.5 hrs followed by incubation with compound for 2.5 hrs and later stimulated with ATP for 30 mins by immunoblot analysis; format: cell-based; conditions: dose 3-30 nM, time 3.0 hrs
NACHT, LRR and PYD domains-containing protein 3 (Mus musculus), sequence (Q8R4B8 whole entry, the tested form may be a part): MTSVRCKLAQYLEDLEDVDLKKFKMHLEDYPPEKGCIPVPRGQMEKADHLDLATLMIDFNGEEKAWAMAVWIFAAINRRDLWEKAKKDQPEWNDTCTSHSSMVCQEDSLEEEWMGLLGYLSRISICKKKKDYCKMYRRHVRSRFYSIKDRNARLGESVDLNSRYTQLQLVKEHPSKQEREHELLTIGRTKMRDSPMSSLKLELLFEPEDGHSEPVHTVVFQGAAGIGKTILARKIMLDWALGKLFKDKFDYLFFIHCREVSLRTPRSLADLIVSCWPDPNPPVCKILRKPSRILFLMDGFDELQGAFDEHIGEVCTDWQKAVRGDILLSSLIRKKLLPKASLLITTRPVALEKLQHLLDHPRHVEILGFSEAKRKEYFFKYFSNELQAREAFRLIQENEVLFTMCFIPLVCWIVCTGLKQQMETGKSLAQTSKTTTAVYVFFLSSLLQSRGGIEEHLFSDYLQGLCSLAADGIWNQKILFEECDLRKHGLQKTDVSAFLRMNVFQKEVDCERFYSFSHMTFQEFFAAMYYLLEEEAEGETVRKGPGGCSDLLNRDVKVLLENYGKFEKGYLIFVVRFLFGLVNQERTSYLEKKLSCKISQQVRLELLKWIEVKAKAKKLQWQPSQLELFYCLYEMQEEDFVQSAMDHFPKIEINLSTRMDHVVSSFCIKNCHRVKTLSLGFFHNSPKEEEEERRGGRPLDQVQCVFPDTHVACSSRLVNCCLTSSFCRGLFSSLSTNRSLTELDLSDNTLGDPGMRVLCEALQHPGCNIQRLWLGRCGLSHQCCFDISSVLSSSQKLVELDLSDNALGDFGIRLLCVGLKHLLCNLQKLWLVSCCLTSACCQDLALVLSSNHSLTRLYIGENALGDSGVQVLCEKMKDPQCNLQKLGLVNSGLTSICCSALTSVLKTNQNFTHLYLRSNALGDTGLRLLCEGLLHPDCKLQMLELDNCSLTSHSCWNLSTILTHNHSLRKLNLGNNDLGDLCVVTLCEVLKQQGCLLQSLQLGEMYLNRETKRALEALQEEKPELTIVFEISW

[11] = molecular target: NACHT, LRR and PYD domains-containing protein 3 (Mus musculus) (UniProt Q8R4B8); test: Inhibition of NLRP3 inflammasome in mouse J774.A1 cells assessed as inhibition of IL-1 beta secretion primed with LPS for 4.5 hrs followed by incubation with compound for 2.5 hrs and later stimulated with ATP for 30 mins by immunoblot analysis; format: cell-based; conditions: dose 3-30 nM, time 3.0 hrs
[12] = molecular target: NLR family CARD domain-containing protein 4 (Mus musculus) (UniProt Q3UP24); test: Inhibition of NLRC4 inflammasome in mouse J774.A1 cells assessed as inhibition of caspase-1 activation at 30 nM primed with LPS for 4.5 hrs followed by incubation with compound for 24 hrs and later stimulated with flagellin for 24 hrs by immunoblot analysis; format: cell-based; conditions: time 48.0 hrs
NLR family CARD domain-containing protein 4 (Mus musculus), sequence (Q3UP24 whole entry, the tested form may be a part): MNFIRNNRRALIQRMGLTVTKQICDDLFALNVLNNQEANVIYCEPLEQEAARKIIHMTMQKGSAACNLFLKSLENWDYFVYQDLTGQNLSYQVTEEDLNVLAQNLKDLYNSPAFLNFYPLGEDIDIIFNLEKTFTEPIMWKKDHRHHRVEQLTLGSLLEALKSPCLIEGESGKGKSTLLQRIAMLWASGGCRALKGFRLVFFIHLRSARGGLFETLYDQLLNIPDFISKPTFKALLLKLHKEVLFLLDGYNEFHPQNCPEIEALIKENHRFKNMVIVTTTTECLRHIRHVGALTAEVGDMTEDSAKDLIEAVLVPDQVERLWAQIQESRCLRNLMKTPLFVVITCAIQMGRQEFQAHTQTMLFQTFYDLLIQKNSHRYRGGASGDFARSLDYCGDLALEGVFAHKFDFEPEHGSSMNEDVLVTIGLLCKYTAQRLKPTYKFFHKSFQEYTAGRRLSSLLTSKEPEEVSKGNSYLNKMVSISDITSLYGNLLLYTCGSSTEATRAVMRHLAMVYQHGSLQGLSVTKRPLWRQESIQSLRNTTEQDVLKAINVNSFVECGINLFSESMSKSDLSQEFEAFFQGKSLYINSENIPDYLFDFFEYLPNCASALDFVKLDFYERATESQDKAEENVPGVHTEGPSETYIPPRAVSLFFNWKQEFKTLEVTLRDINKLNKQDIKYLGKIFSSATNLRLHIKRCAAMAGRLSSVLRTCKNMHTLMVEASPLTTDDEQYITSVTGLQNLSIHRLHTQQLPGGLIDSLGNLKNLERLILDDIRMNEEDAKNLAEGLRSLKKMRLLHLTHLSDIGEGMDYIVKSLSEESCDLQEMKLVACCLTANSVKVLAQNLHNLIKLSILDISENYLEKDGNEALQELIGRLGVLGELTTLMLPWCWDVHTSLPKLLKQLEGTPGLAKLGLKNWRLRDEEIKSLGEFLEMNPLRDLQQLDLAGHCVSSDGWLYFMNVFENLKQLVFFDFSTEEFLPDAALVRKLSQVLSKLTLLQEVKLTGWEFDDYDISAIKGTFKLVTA

THP-1 = test: Effect on ROS production in PMA-induced differentiated human THP-1 cells at 30 nM pretreated with compound for 24 hrs followed by stimulation with LPS for 4.5 hrs and ATP for 1 hr by MitoSOX dye based confocal microscopy; format: functional, cell-based; conditions: time 29.5 hrs
[13] = Cmax in ICR mouse at 5 mg/kg, iv by LC-MS/MS analysis; format: ADME, organism-based; set-up: dose 5 mg/kg, route iv; conditions: in vivo
[14] = MRT (0 to infinity) in ICR mouse at 5 mg/kg, iv by LC-MS/MS analysis; format: ADME, organism-based; conditions: in vivo
[15] = Clearance in ICR mouse at 5 mg/kg, iv by LC-MS/MS analysis; format: ADME, organism-based; conditions: in vivo
[16] = Tmax in ICR mouse at 10 mg/kg, po by LC-MS/MS analysis; format: ADME, organism-based; conditions: in vivo
[17] = Cmax in ICR mouse at 10 mg/kg, po by LC-MS/MS analysis; format: ADME, organism-based; set-up: dose 10 mg/kg, route po; conditions: in vivo
[18] = AUC (0 to infinity) in ICR mouse at 10 mg/kg, po by LC-MS/MS analysis; format: ADME, organism-based; set-up: dose 10 mg/kg, route po; conditions: in vivo
[19] = MRT (0 to infinity) in ICR mouse at 10 mg/kg, po by LC-MS/MS analysis; format: ADME, organism-based; conditions: in vivo
[20] = Oral bioavailability in ICR mouse at 10 mg/kg by LC-MS/MS analysis; format: ADME, organism-based; conditions: in vivo
[21] = Drug uptake in Sprague-Dawley rat jejunum at 50 mg/kg, po measured for 24 hrs by LC-MS/MS analysis; format: ADME, organism-based; conditions: in vivo
[22] = Drug uptake in Sprague-Dawley rat kidney at 50 mg/kg, po measured for 24 hrs by LC-MS/MS analysis; format: ADME, organism-based; conditions: in vivo
[23] = Drug uptake in Sprague-Dawley rat lungs at 50 mg/kg, po measured for 24 hrs by LC-MS/MS analysis; format: ADME, organism-based, Lung; conditions: in vivo
Mus musculus [24] = test: Antiinflammatory activity against MCD diet-induced NASH C57BL/6 mouse model assessed as protection against MCD diet-induced increase in liver to body weight ratio at 40 mg/kg, po administered via gavage for 5 weeks; format: functional, organism-based
Mus musculus [25] = test: Antiinflammatory activity against MCD diet-induced NASH C57BL/6 mouse model assessed as improvement in liver morphology at 40 mg/kg, po administered via gavage for 5 weeks by H and E staining based analysis; format: functional, organism-based
Mus musculus [26] = test: Antiinflammatory activity against MCD diet-induced NASH C57BL/6 mouse model assessed as improvement in liver morphology at 40 mg/kg, po administered via gavage for 5 weeks by Sirius red staining based analysis; format: functional, organism-based
Mus musculus [27] = test: Antiinflammatory activity against MCD diet-induced NASH C57BL/6 mouse model assessed as reduction in immune cell infiltration by measuring reduction in CD45-positive hepatic cells at 40 mg/kg, po administered via gavage for 5 weeks by immunofluorescence staining based analysis; format: functional, organism-based
Mus musculus [28] = test: Antiinflammatory activity against LPS-induced lethal septic shock C57BL/6 mouse model assessed as increase in animal's survival rate at 40 mg/kg, ip administered for 1 hr prior to LPS challenge and measured for 72 hrs; format: functional; conditions: time 73 hrs
Mus musculus [29] = test: Antiinflammatory activity against LPS-induced lethal septic shock C57BL/6 mouse model assessed as reduction in serum IL-1 beta level at 20 to 40 mg/kg, ip administered for 1 hr prior to LPS challenge and measured after 2.5 hrs by ELISA; format: functional, organism-based; conditions: dose 20-40 mg/kg, time 3.5 hrs
Mus musculus [30] = test: Antiinflammatory activity against LPS-induced lethal septic shock C57BL/6 mouse model assessed as effect on TNF-alpha level at 40 mg/kg, ip administered for 1 hr prior to LPS challenge and measured after 2.5 hrs by ELISA; format: functional, organism-based; conditions: time 3.5 hrs
Mus musculus [31] = test: Antiinflammatory activity against DSS-induced ulcerative colitis C57BL/6 mouse assessed as reduction in body weight loss at 10 mg/kg, ip administered for 9 days and measured daily; format: functional, organism-based; conditions: time 9.0 day
Mus musculus [32] = test: Antiinflammatory activity against DSS-induced ulcerative colitis C57BL/6 mouse assessed as reduction in mucosal barrier disruption in colon at 10 mg/kg, ip administered for 9 days and measured on day 10 by H and E staining based analysis; format: functional, organism-based; conditions: time 10.0 day

Question: What does the source list for `CN(C)Cc1ccc(S(=O)(=O)NC(=O)Nc2c3c(cc4c2CCC4)CCC3)cc1`?
Answer: Activity (Mus musculus [1]): Active; Activity (Mus musculus [2]): Active; Activity (Mus musculus [3]): Active; Activity (L02): Non-Toxic; Activity (Hepatocyte): Non-Toxic; Activity [4]: Non-Toxic; Activity [5]: Non-Toxic; Activity [6]: Non-Toxic; Activity [7]: Non-Toxic; Activity [8]: Non-Toxic; Activity [9]: Non-Toxic; inhibition [10]: Dose-Dependent Effect; inhibition [11]: Dose-Dependent Effect; inhibition [12]: inactive; Activity (THP-1): inactive; Cmax [13]: 22600 ng/mL; MRT inf [14]: 5.3 h; clearance [15]: 0.647 mL/min/kg; Tmax [16]: 40 min; Cmax [17]: 33900 ng/mL; AUC(0-inf) [18]: 222 µg·h/mL; MRT inf [19]: 4.79 h; bioavailability [20]: 85.2%; Drug uptake [21]: Active; Drug uptake [22]: Active; Drug uptake [23]: Active; Activity (Mus musculus [24]): Active; Activity (Mus musculus [25]): Active; Activity (Mus musculus [26]): Active; Activity (Mus musculus [27]): Active; survival at 40 mg/kg (Mus musculus [28]): 70%; Activity (Mus musculus [29]): Active; Activity (Mus musculus [30]): inactive; Activity (Mus musculus [31]): Active; Activity (Mus musculus [32]): Active
